Reference: BigSolDB 2.1

CCCSc1ccc2nc(NC(=O)OC)[nH]c2c1
solubility (mole fraction)
Conditions | in acetone | in ethanol | in ethyl acetate | in isobutyl acetate | in isopropanol | in methanol | in n-butanol | in n-butyl acetate | in n-propanol | in n-propyl acetate
278.15 K | 0.00148 | 5.59e-05 | 0.00053 | 0.000491 | 9.89e-05 | 9.62e-05 | 0.00021 | 0.000553 | 0.00017 | 0.000468
283.15 K | 0.00173 | 7.25e-05 | 0.000596 | 0.000542 | 0.000128 | 0.000114 | 0.000254 | 0.000609 | 0.000192 | 0.00054
288.15 K | 0.00204 | 9.39e-05 | 0.000688 | 0.000594 | 0.000156 | 0.000133 | 0.000298 | 0.000691 | 0.00023 | 0.000598
293.15 K | 0.00253 | 0.00011 | 0.000805 | 0.000671 | 0.000187 | 0.000157 | 0.000343 | 0.000783 | 0.000276 | 0.000673
298.15 K | 0.00302 | 0.00014 | 0.000925 | 0.000749 | 0.000234 | 0.000174 | 0.000402 | 0.000873 | 0.000325 | 0.000777
303.15 K | 0.00349 | 0.000182 | 0.00103 | 0.000799 | 0.000272 | 0.000205 | 0.000473 | 0.000983 | 0.000371 | 0.000858
308.15 K | 0.00389 | 0.000234 | 0.00119 | 0.000873 | 0.000328 | 0.000257 | 0.000558 | 0.0011 | 0.000423 | 0.000962
313.15 K | 0.00442 | 0.000297 | 0.00133 | 0.000964 | 0.000394 | 0.000298 | 0.00063 | 0.0012 | 0.000488 | 0.00106
318.15 K | 0.00528 | 0.000364 | 0.0015 | 0.00109 | 0.000456 | 0.000363 | 0.000738 | 0.00132 | 0.000569 | 0.00117
323.15 K | 0.00589 | 0.000452 | 0.00167 | 0.00119 | 0.000553 | 0.000428 | 0.000829 | 0.00146 | 0.000624 | 0.0013
